Assays:
[1] = test system: Human hepatoma cells (HepG2); assay: Cell killing assay (MTT, 72 hours); assay type: cell-based; conditions: FIG. 7A
Experimental: (§1) Cell culture: Human hepatoma cells (HepG2) and human colorectal cancer cells (CaCo2) were cultivated at 37° C. under 5% CO2 by using EMEM cell culture media containing 10% Fetal Bovine serum. Cell killing assay: the tumor cells were added into a 96-well plate with a density of 5000 cells/well for 24 hours, and then the culture media were changed to those with different Se concentrations. At 72 hours, the cell numbers were determined by MTT protocol. Each treatment was conducted in 3 parallels, and the data were expressed by percent relative to cell numbers when no Se was added. Cell proliferation assay: HepG2 or CaCo2 cells were added into a 96-well plate with a density of 1000 cells/well for 24 hours, and then the culture media were changed to those with 12.5 μM Se. The day was defined as day 0. The cell numbers were determined by MTT protocol on day 0, 2, 4 and 6, respectively. Each treatment was conducted with 8 parallels, and the data were expressed with percent relative to the cell numbers on day 0. MTT assay: Each well was added with 20 μL MTT (5 mg/mL) 4 hours prior to the end of culture. After the culture was ended, the supernatant was discarded, and the formazan particles were dissolved in HCl-isopropanol (10 μL/well). The readings were recorded at 595 nm on a microplate reader.

[2] = test system: glutathione S-transferase (GST); assay: Se-supplementing effect in Se-deficient mice: GST activity in liver; assay type: in vivo; conditions: relative to control 1.00 (control 4071.4 unit/mg protein), mean±SD
Experimental: (§2) It has been reported that high doses of sodium selenite can reduce the symptom of severely ill patient and enhance the therapeutic efficacy of chemotherapy agents for cancers. It remains unknown whether there are differences regarding the Se-supplementing effect between sodium selenosulfate and sodium selenite at pharmacologic doses. In this example, Se-deficient mice were intraperitoneally injected with sodium selenite and sodium selenosulfate at doses of 0.5 and 1 mg Se/kg for a week. The enzyme activity and selenium were measured to compare the Se-supplementing effect between the two selenium compounds.
(§3) Animals: Se-deficient male Kunming mice (body weight: 20-23 g) were purchased from the animal center of Anhui Medical University. Drugs Administration: 35 mice were randomly divided into 5 groups with 7 mice in each group. The mice in the control group were injected with normal saline, and those in other groups were injected respectively with different doses of sodium selenite and sodium selenosulfate (0.5 and 1 mg Se/kg) for 7 consecutive days. Biochemical parameters: 24 hours after the last Se administration, blood was sampled from ophthalmic veins to obtain serum by centrifugation, and then the Se form and glutathione peroxidase (GPx) activity therein were determined. Meanwhile, liver and kidney were excised and stored at −30° C., and a part of them were used to determine Se. A part of livers and kidneys were homogenized and centrifuged to obtain supernatant, and then GPx activity and glutathione S-transferase (GST) activity in livers were determined. Statistical analysis: Data were expressed as mean±SD. The differences between the groups were examined using ANOVA. A p value less than 0.05 was considered statistically significant.

[3] = test system: Human hepatoma cells (HepG2); assay: Cell proliferation assay (MTT, day 0-6); assay type: cell-based; conditions: 12.5 μM Se, day 0-6, MTT; FIG. 7B
Experimental: as §1

[4] = Se-supplementing effect in Se-deficient mice: Se level in serum, liver and kidney; assay type: in vivo; conditions: mean±SD; for Serum Se: relative to control 1.00 (control 0.07 μg/mL serum); for Liver Se: relative to control 1.00 (control 0.15 μg/g liver); for Kidney Se: relative to control 1.00 (control 0.44 μg/g kidney)
Experimental: as §2, §3

[5] = test system: Se-sufficient male Kunming mice; assay: Toxicity to normal tissues in Se-sufficient mice, i.p. once daily for 14 days; assay type: in vivo; conditions: for mortality: FIG. 3; for hepatic tissue slices with hydropic or fatty degeneration / serum ALT and AST activity (hepatotoxicity): 2 mg Se/kg, 14 days; for hepatic tissue slices with hydropic or fatty degeneration: HE stain, selenite moderate (FIG. 5), selenosulfate slight (FIG. 6); for serum ALT and AST activity (hepatotoxicity): FIG. 4; for suppression of the growth of the mice (body weight): 2 and 3 mg Se/kg, same Se levels compared, FIG. 2
Experimental: Animals: Se-sufficient male Kunming mice (body weight: 23±1 g) were purchased from the Shanghai Laboratory Animal Center, Chinese Academy of Sciences. Drugs Administration: 50 mice were randomly divided into 5 groups with 10 mice in each group. The mice in the control group were injected intraperitoneally with normal saline, and the other groups were injected with sodium selenite (2 groups) and sodium selenosulfate (2 groups) respectively at 2 and 3 mg Se/kg once daily for 14 consecutive days. The mice in low dosage groups were sacrificed 24 hours after the last Se administration. Animal status: The body weight and dead status of the mice were recorded every day. Biochemical parameters: Blood was sampled from ophthalmic veins for determining serum ALT activity and AST activity. Pathology: Liver was excised for the determination. The slice was dyed by using HE. Statistical analysis: Data were expressed as mean±SD. The differences between the groups were examined using ANOVA. A p value less than 0.05 was considered statistically significant.

[6] = test system: glutathione peroxidase (GPx); assay: Se-supplementing effect in Se-deficient mice: GPx activity in serum, liver and kidney; assay type: in vivo; conditions: mean±SD; for Liver GPx: relative to control 1.00 (control 88.5 unit/mg protein); for Kidney GPx: relative to control 1.00 (control 142.8 unit/mg protein); for Serum GPx: relative to control 1.00 (control 525.5 unit/mL serum)
Experimental: as §2, §3

hepatoma H22 cell = assay: Treatment of mice bearing H22 ascites with cisplatin with or without sodium selenosulfate; assay type: in vivo; conditions: for Survival time of dead mice: mean±SD
Experimental: Animals: Se-sufficient male Kunming mice (body weight: 20-23 g) were purchased from Shanghai Laboratory Animal Center, Chinese Academy of Sciences. Drugs Administration: 48 mice were divided randomly into 6 groups with 8 mice in each group. Each mouse was inoculated intraperitoneally with hepatoma H22 cell suspension (20×10^6 cells). The groups were classified into 3 cisplatin groups, 2 cisplatin plus Se-supplementing groups (the groups administrated with 8 and 10 mg/kg doses of cisplatin were treated with 0.6 and 0.75 mg Se/kg doses of sodium selenosulfate, respectively) and 1 control group in terms of the administration doses (5, 8 and 10 mg/kg) of cisplatin. The experiments were carried out with one week as a cycle. The experiments with cisplatin doses of 5 and 8 mg/kg were carried out for total 4 cycles, and those with cisplatin dose of 10 mg/kg were performed for total 3 cycles. From the first day of each cycle, the mice in cisplatin groups was intraperitoneally injected with the corresponding concentrations of cisplatin, and the mice in cisplatin plus Se-supplementing groups were injected intraperitoneally with the corresponding sodium selenosulfate doses of 0.6 and 0.75 mg Se/kg respectively 4 hours before the intraperitoneal injection of cisplatin. The treatment was performed for 5 consecutive days. The first cisplatin chemotherapy started at 48 hours after the inoculation of tumor cells. The animal status was recorded and the development of malignant ascites was observed. Statistical analysis: Data were expressed as mean±SD. The differences between the groups were examined using ANOVA. A p value less than 0.05 was considered statistically significant.

[7] = 2 mg Se/kg i.p. once daily 14 days
[8] = 3 mg Se/kg i.p. once daily 14 days
[9] = cisplatin 5 mg/kg i.p., 4 cycles
[10] = cisplatin 8 mg/kg i.p., 4 cycles
[11] = cisplatin 10 mg/kg i.p., 3 cycles

| SMILES | Liver GST ([2]; 0.5 mg/kg i.p. 7 days) | Liver GST ([2]; 1.0 mg/kg i.p. 7 days) | mortality [5, 7] | hepatic tissue slices with hydropic or fatty degeneration [5] | serum ALT and AST activity (hepatotoxicity) [5] | mortality [5, 8] [%] | suppression of the growth of the mice (body weight) [5] | Liver GPx ([6]; 0.5 mg/kg i.p. 7 days) | Kidney GPx ([6]; 0.5 mg/kg i.p. 7 days) | Serum GPx ([6]; 0.5 mg/kg i.p. 7 days) | Liver GPx ([6]; 1.0 mg/kg i.p. 7 days) | Kidney GPx ([6]; 1.0 mg/kg i.p. 7 days) | Serum GPx ([6]; 1.0 mg/kg i.p. 7 days) | further results |
| --- | --- | --- | --- | --- | --- | --- | --- | --- | --- | --- | --- | --- | --- | --- |
| O=S(=O)([O-])[Se-].[Na+].[Na+] [Sodium selenosulfate, sodium selenosulfate] | 1.47 ± 0.29 | 2.69 ± 0.23 | all the mice treated with sodium selenosulfate survived | 20% | such phenomenon was not found | 20 | could suppress the growth of the mice as compared with the control | 18.8 ± 0.19 | 7.74 ± 0.19 | 3.10 ± 0.25 | 22.2 ± 0.16 | 9.09 ± 0.18 | 4.41 ± 0.24 | killing effect on HepG2 cells [1]: dose-dependent profile on killing HepG2 cells at levels of 6-18 μM; suppression of proliferation of HepG2 cells [3]: fully suppressed the proliferation of HepG2 cells; Serum Se ([4]; 0.5 mg/kg i.p. 7 days): 5.69 ± 0.13; Liver Se ([4]; 0.5 mg/kg i.p. 7 days): 11.2 ± 0.09; Kidney Se ([4]; 0.5 mg/kg i.p. 7 days): 2.85 ± 0.10; Serum Se ([4]; 1.0 mg/kg i.p. 7 days): 5.24 ± 0.39; Liver Se ([4]; 1.0 mg/kg i.p. 7 days): 15.2 ± 0.09; Kidney Se ([4]; 1.0 mg/kg i.p. 7 days): 3.90 ± 0.14 |
| N.N.[Cl][Pt][Cl] [Cisplatin, cisplatin] |  |  |  |  |  |  |  |  |  |  |  |  |  | suppression of the development of malignant ascites (hepatoma H22 cell; cisplatin 5 mg/kg): could not suppress the rapid development of malignant ascites; Cure rate (hepatoma H22 cell; [9]): 0%; Death rate (hepatoma H22 cell; [9]): 100%; Survival time of dead mice (hepatoma H22 cell; [9]): 20 ± 7 days; Cure rate (hepatoma H22 cell; [10]): 0%; Death rate (hepatoma H22 cell; [10]): 100%; Survival time of dead mice (hepatoma H22 cell; [10]): 31 ± 12 days; Cure rate (hepatoma H22 cell; [11]): 25%; Death rate (hepatoma H22 cell; [11]): 75%; Survival time of dead mice (hepatoma H22 cell; [11]): 21 ± 9 days; suppression of the development of malignant ascites (hepatoma H22 cell; cisplatin 8 and 10 mg/kg): could efficiently suppress the development of malignant ascites |
| O=[Se](O)O [Sodium selenite, sodium selenite] | 1.64 ± 0.23 | 2.44 ± 0.14 | 20% | up to 80% | made ALT and AST increased significantly | 90 | significantly stronger than that of sodium selenosulfate | 19.8 ± 0.08 | 8.74 ± 0.14 | 2.97 ± 0.37 | 22.2 ± 0.10 | 10.2 ± 0.14 | 4.18 ± 0.26 |  |

Source: patent US8480995B2, “Use of sodium selenosulfate for supplementing selenium and enhancing the therapeutic efficacy of chemotherapy agents, and a rapid process for preparing sodium selenosulfate” (University of Science and Technology of China, priority 2007, dated 2013)
